This is an account of results in patent publication US20160279207A1, “TARGETING GDF6 AND BMP SIGNALING FOR ANTI-MELANOMA THERAPY” (University of Massachusetts, priority 2015, published 2016).

“Also recorded” adds a separate entry of the source.

Series [1] concerns A375 melanoma cells. Put plainly: Clonogenic growth (colony formation) assay. Format: cell-based, human. The conditions noted are these: for colonies in clonogenic growth assay after shRNA treatment: A375 cells, crystal violet staining; for colonies in clonogenic growth assay after shRNA treatment / colonies in clonogenic growth assay, empty vector-transfected cells: vs shGFP; for colonies in clonogenic growth assay, cells expressing SMAD1 phosphomimic (SMAD1DVD): SMAD1DVD cells treated with shRNA; for colonies in clonogenic growth assay, empty vector-transfected cells: empty vector cells treated with shRNA. As to the method:
For growth curves 50,000 live cells were seeded per well in a 6-well tissue culture plate on day 0. The numbers of live cells were calculated every day using an automated cell counter (Nexcelom Bioscience Cellometer Auto T4) following standard procedures. All assays were performed with technical replicates. For clonogenic assays, 3,000 live cells were seeded in a 10 cm tissue culture plate. […] ImageJ was used to quantify the number of colonies. In assays with DMH1 treatment, control or DMH1-containing media was replaced every other day. For soft agar assays a 0.5% bottom layer (1:1 with 1% agar and 2X DMEM with 20% FBS) and a 0.3% top layer (1:1 with 0.6% agar and 2× DMEM with 20% FBS) were used. 3,000 live cells per well of a 6-well tissue culture plate were added in the top layer. Media was added initially then replaced every 3 days. After 3 weeks, colonies were stained with nitroblue tetrazolium chloride overnight at 37° C. Once stained, individual wells were photographed, and ImageJ was used to count the number of colonies. All these assays were done in triplicate, and experiments were repeated at least twice. A representative image of each has been shown.

For series [2], the system named is A375 melanoma cells. Kind of series: A375 melanoma xenograft in nude mice, tumor volume. The class given is in vivo, mouse. The conditions noted are these: for tumor formation (tumor volume) of shRNA-treated cells xenotransplanted into mice: A375 cells treated with shRNA before transplantation, vs shGFP/shEGFP; for xenograft tumor formation, SMAD1 phosphomimic cells: SMAD1DVD cells with GDF6 knocked down; for xenograft tumor formation, empty vector-transfected cells: empty vector cells with GDF6 knocked down. How it is done:
An art-accepted model to test for an agent's effects on melanoma is that of using immunocompromised (“nude”) mice which are then injected subcutaneously with melanoma cells, and then concomitant with injection of the cells, sometime after injection, and/or after tumor establishment, the test agent is appropriately administered (e.g., intravenously, peritoneally, orally, etc.). Control and treated animals are monitored in part for tumor growth, tumor stabilization, and tumor regression (see for example, Yang et al. 2010. Cancer Res., 70:5518-5527 and Bollag et al. 2010. Nature. 467:596-599).
All animal protocols were approved by the UMMS Institution Animal Care and Use Committee (A-2016, A-2171). Mice were randomly allocated to individual experimental groups. No blinding was done as animal groups were identified by tagging and cage labeling. Animals were excluded, according to pre-established criteria, if the tumor volume reached >1,000 mm^3; if tumor size or location affected the mobility or general health of animal, the animal was euthanized and excluded from the experiment or the complete experiment was terminated. A375 cells stably expressing an EGFP or GDF6 or SMAD1 shRNA and/or empty vector or GDF6-expressing vector or SMAD1DVD-overexpressing vector were subcutaneously injected into the flanks of 6-8-week-old BALB/c nu/nu female mice (Taconic Farms) to produce orthotopic primary tumor. Primary tumor growth was monitored every 3 days with calipers, and the tumor volume was calculated as described previously (C. Gazin, N. Wajapeyee, S. Gobeil, C. M. Virbasius, M. R. Green, An elaborate pathway required for Ras-mediated epigenetic silencing. Nature 449, 1073-1077 (2007)). For GDF6 knockdown, SMAD1 knockdown and epistasis experiments, 1×10^7 live cells were injected. For GDF6 overexpression experiments, 1×10^6 live cells were injected. For GDF6 overexpression and GDF6 knockdowns, a representative of two independent experiments (n=3 animals per experiment) is shown. For DMH1 drug experiments, 1×10^6 live A375 cells were subcutaneously injected in the flanks of BALB/c nu/nu female mice. Beginning on the day cells were injected, mice were injected intraperitoneally with vehicle 12.5% 2-hydroxypropyl-β-cyclodextrin or 25 mg/kg DMH1 in vehicle every other day. The growth of the tumor was monitored as described above. This experiment was repeated twice and the weighted average of both experiments (n=8 total) is represented.

The next series concerns GDF6. Put plainly: Western blot of GDF6 protein after shRNA knockdown. Format: cell-based, human. The following applies: melanoma cells, vs shGFP control. As to the method:
Lentiviral infections were performed as described previously (C. J. Ceol et al., The histone methyltransferase SETDB 1 is recurrently amplified in melanoma and accelerates its onset. (Nature 471, 513-517 (2011)). For stable gene knockdowns, we used pLKO-1 lentiviral vectors to deliver short hairpin sequences (shRNAs) (obtained from the RNAi Consortium (TRC)/Broad Institute through the UMMS RNAi core facility) specific for GDF6 (GDF6.1: TRCN0000141818, target sequence: […] (SEQ ID NO:10); GDF6.2: TRCN0000140097, target sequence: […] (SEQ ID NO:11)) or SMAD1 (SMAD1.1: TRCN0000021781, target sequence: […] (SEQ ID NO:12); SMAD1.2: TRCN0000021782, target sequence: […] (SEQ ID NO:13)) or EGFP (TRCN0000072181, target sequence: […] (SEQ ID NO:14)). Virus was made using a second generation lentiviral packaging system in HEK293T cells and titrated using a p24 ELISA kit (Clontech). Cells were infected with virus at a multiplicity of infection of 2.5 with 8 μg/ml polybrene followed by puromycin selection (2 μm/ml) for 2 days in appropriate media. For overexpression, we used Gateway cloning (Life Technologies) to insert the GDF6 ORF (GE life sciences) or SMAD1DVD ORF (provided by Takenobu Katagiri) into the pLenti CMV Hygro DEST (w117-1) vector (provided by Paul Kaufman). […]

Series [3] deals with A375 melanoma cells. Kind of series: Apoptosis markers: Annexin5 staining and Caspase 3/7 cleavage. The following applies: vs shGFP. Format: cell-based, human. As to the method: A375 melanoma cells after knockdown of GDF6 or SMAD1 or EGFP were stained for Annexin V and 7-AAD (BD Pharmingen PR Annexin V Apoptosis Detection kit) as per manufacturer's instructions, followed by flow cytometry using a FACSCalibur instrument (BD Biosciences). Caspase3/7 activity was measured using the Caspase-Glo 3/7 assay (Promega) as per manufacturer's instructions.

A further series relates to SMAD1. Kind of series: Western blot of SMAD1 protein after shRNA knockdown. Format: cell-based, human. The conditions noted are these: melanoma cells, vs shGFP control. As to the method: Lentiviral infections were performed as described previously (C. J. Ceol et al., The histone methyltransferase SETDB 1 is recurrently amplified in melanoma and accelerates its onset. (Nature 471, 513-517 (2011)). For stable gene knockdowns, we used pLKO-1 lentiviral vectors to deliver short hairpin sequences (shRNAs) (obtained from the RNAi Consortium (TRC)/Broad Institute through the UMMS RNAi core facility) specific for GDF6 (GDF6.1: TRCN0000141818, target sequence: […] (SEQ ID NO:10); GDF6.2: TRCN0000140097, target sequence: […] (SEQ ID NO:11)) or SMAD1 (SMAD1.1: TRCN0000021781, target sequence: […] (SEQ ID NO:12); SMAD1.2: TRCN0000021782, target sequence: […] (SEQ ID NO:13)) or EGFP (TRCN0000072181, target sequence: […] (SEQ ID NO:14)). Virus was made using a second generation lentiviral packaging system in HEK293T cells and titrated using a p24 ELISA kit (Clontech). Cells were infected with virus at a multiplicity of infection of 2.5 with 8 μg/ml polybrene followed by puromycin selection (2 μm/ml) for 2 days in appropriate media. For overexpression, we used Gateway cloning (Life Technologies) to insert the GDF6 ORF (GE life sciences) or SMAD1DVD ORF (provided by Takenobu Katagiri) into the pLenti CMV Hygro DEST (w117-1) vector (provided by Paul Kaufman). Infection and monitoring was performed as described (C. J. Ceol et al., The histone methyltransferase SETDB 1 is recurrently amplified in melanoma and accelerates its onset. (Nature 471, 513-517 (2011)), except that selection was done with 300 ug/ml hygromycin for 10 days.
Protein extracts were prepared as previously described (S. D. Epstein L B, Hunte-McDonough B, harris C A, Cytokines: A pratical approach (Balkwill F R., ed). 81-93 (1991)). Extracts were separated on 12% SDS-PAGE gels. Blots were probed with primary antibodies (GDF6 (Sigma PRS4691; 1:1000), phospho-SMAD1/5/8 (Cell Signaling 13820; 1:1000), SMAD1 (Cell Signaling 9743; 1:500), Total SMAD1/5/8 (Santa Cruz sc-6031-R; 1:1000), FLAG (Sigma F3165, 1:2000), GAPDH (Abcam 8245; 1:2000)) overnight at 4° C., washed five times in TBS plus 0.1% Tween (TBST) and then incubated with the appropriate HRP-conjugated secondary antibody (Jackson Labs) for 1 hour at room temperature. Membranes were washed five times in TBST and visualized on autoradiography film after incubating with ECL reagent (Supersignal West Pico or Supersignal West Femto; Thermo Scientific).
In general terms: Immunoblotting shows a protein as a band on a membrane.

For a further series, the system named is MeWo melanoma cells. Put plainly: Rescue of GDF6-knockdown melanoma cells by recombinant GDF6 in culture media. The conditions noted are these: cells treated with shRNAs targeting GDF6. Format: cell-based, human. From the text: To determine if secreted GDF6 can facilitate the growth of melanoma cells, we knocked down GDF6 using shRNAs and then treated these knockdown cells with recombinant GDF6 protein (FIG. 10).

Consider “shGDF6#1: shRNA targeting GDF6 (SEQ ID NO:1); GDF6.1 TRCN0000141818 targets SEQ ID NO:10 (GCCAAGTGTTACATTGAGCTT; the letters are possibly those of the target site; listed as Homo sapiens)”, for which, in the series on A375 melanoma cells [1], the “colonies in clonogenic growth assay after shRNA treatment” value (shortened to “colonies … after shRNA treatment”) is listed as “far fewer colonies”; the “colonies in clonogenic growth assay, cells expressing SMAD1 phosphomimic (SMAD1DVD)” value is on record as “partially restored”; the “colonies in clonogenic growth assay, empty vector-transfected cells” value is “few colonies formed”. In addition, in the series on A375 melanoma cells [2], the “tumor formation (tumor volume) of shRNA-treated cells xenotransplanted into mice” value (from here on “tumor formation (tumor volume)”) was “tumors intermediate between the control-treated (shEGFP) cells and the shGDF6#2-treated cells; also recorded: tumor volumes in xenografts decrease with the degree of GDF6 knockdown”; the “xenograft tumor formation, SMAD1 phosphomimic cells” value is recorded as “tumor formation accelerated after day 15”; the “xenograft tumor formation, empty vector-transfected cells” value was “only small tumors formed”. For the same molecule, the “GDF6 protein expression after shRNA treatment” value with GDF6 is “partially inhibited GDF6 protein expression; also recorded: knockdown of GDF6 protein; also recorded: diminishes expression of GDF6 protein”. In addition, in the series on A375 melanoma cells [3], the “apoptosis (Annexin5 staining, Caspase 3/7 cleavage)” value (shortened to “apoptosis”) was “elevated apoptosis relative to control cells”.

“shGDF6#2: shRNA targeting GDF6 (SEQ ID NO:2); GDF6.2 TRCN0000140097 targets SEQ ID NO:11 (GTGTCCATGCTCTCAGACAAA; the letters are possibly those of the target site; listed as Homo sapiens)”: in the series on A375 melanoma cells [1], the “colonies … after shRNA treatment” value is reported as “far fewer colonies”; the “colonies in clonogenic growth assay, cells expressing SMAD1 phosphomimic (SMAD1DVD)” value was “partially restored”; the “colonies in clonogenic growth assay, empty vector-transfected cells” value is recorded as “few colonies formed”. Besides, in the series on A375 melanoma cells [2], the “tumor formation (tumor volume)” value is reported as “very little tumor formation; also recorded: formed tumors more slowly than control cells; also recorded: tumor volumes in xenografts decrease with the degree of GDF6 knockdown”; the “xenograft tumor formation, SMAD1 phosphomimic cells” value was “tumor formation accelerated after day 15”; the “xenograft tumor formation, empty vector-transfected cells” value is on record as “only small tumors formed”. Further, the “GDF6 protein expression after shRNA treatment” value in the series with GDF6 was “more effective than shGDF6#1; also recorded: knockdown of GDF6 protein; also recorded: diminishes expression of GDF6 protein”. In addition, the “apoptosis” value in the series with A375 melanoma cells [3] is “elevated apoptosis relative to control cells”.

On to “shSMAD1-1: shRNA targeting SMAD1 (SEQ ID NO:4); SMAD1.1 TRCN0000021781 targets SEQ ID NO:12 (CGGTTGCTTATGAGGAACCAA; the letters are possibly those of the target site; listed as Homo sapiens)”, for which the “colonies … after shRNA treatment” value with A375 melanoma cells [1] is on record as “far fewer colonies”. Moreover, in the series with A375 melanoma cells [2], the “tumor formation (tumor volume)” value is recorded as “formed only very small tumors; also recorded: tumor volumes in xenografts decrease”. For the same molecule, the “SMAD1 protein expression after shRNA treatment” value with SMAD1 is recorded as “knockdown of SMAD1 protein”; with SMAD1 (listed as shSMAD1#1), “significantly decreased; also recorded: decreases expression of SMAD1 protein”. Besides, the “apoptosis” value with A375 melanoma cells [3] is “elevated apoptosis relative to control cells”.

With “shSMAD1-2: shRNA targeting SMAD1 (SEQ ID NO:5); SMAD1.2 TRCN0000021782 targets SEQ ID NO:13 (GCCGATGGACACAAACATGAT; the letters are possibly those of the target site; listed as Homo sapiens)”, in the series on A375 melanoma cells [1], the “colonies … after shRNA treatment” value is reported as “far fewer colonies”. In addition, the “SMAD1 protein expression after shRNA treatment” value with SMAD1 was “knockdown of SMAD1 protein”; in the series on SMAD1 (listed as shSMAD1#2) it was “significantly decreased; also recorded: decreases expression of SMAD1 protein”. Moreover, the “apoptosis” value in the series on A375 melanoma cells [3] is on record as “elevated apoptosis relative to control cells”.

B1: recombinant GDF6 protein: recombinant GDF6 protein added to culture media (protein, UniProt Q6KF10 336-455, looked up)
Growth/differentiation factor …: TAFASRHGKRHGKKSRLRCSKKPLHVNFKELGWDDWIIAPLEYEAYHCEGVCDFPLRSHLEPTNHAIIQTLMNSMDPGSTPPSCCVPTKLTPISILYIDAGNNVVYKQYEDMVVESCGCR
B1: the “proliferation/survival of GDF6-knockdown melanoma cells with recombinant GDF6 added to media” value in the series on MeWo melanoma cells is “rescued the melanoma cells from undergoing GDF6 shRNA-induced apoptosis; also recorded: proliferation of GDF6-knockdown cells was restored”; in the series with MeWo melanoma cells (listed as recombinant GDF6), “able to sustain their proliferation”.
